In patent US20240041042A1, “1-(PYRIDYL)-5-AZINYLPYRAZOLE DERIVATIVES, AND THEIR USE FOR CONTROL OF UNDESIRED PLANT GROWTH” (Bayer Aktiengesellschaft, priority 2020, published 2024):
Read-outs that look alike come from different tables or passages of the source.

Key:
Type in all cases: in vivo
[1] = tested on: Triticum aestivum (TRZAS); conditions: crop plant compatibility, effect vs untreated controls
Method in brief: (§1)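 Visual rating (% effect vs. untreated plants; 100% = plant death) made about 3 weeks after treatment. Plants had been sprayed at one-leaf stage, 2–3 weeks post-sowing, with aqueous WP/EC preparations containing 0.5% additive, 600 l/ha water volume; a, b, c mark dose levels.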

[2] = tested on: Oryza sativa (ORYSA); conditions: crop plant compatibility, effect in comparison to untreated controls
Method in brief: as §1

[3] = tested on: Zea mays (ZEAMX); conditions: crop plant compatibility, effect vs untreated controls
Method in brief: as §1

[4] = tested on: Pharbitis purpurea (PHBPU); experiment: Post-emergence herbicidal action against PHBPU
Method in brief: (§2)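 Rates were 320 g/ha or below, applied as aqueous WP/EC spray with 0.5% additive (600 l/ha) onto one-leaf-stage plants. About 3 weeks later in the greenhouse, damage was scored visually against untreated plants on a 0–100% scale, where 100% means plants died.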

[5] = tested on: Triticum aestivum (TRZAS); conditions: pre-emergence, crop plant compatibility, in comparison to untreated controls
Method in brief: (§3)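 Crop injury rated visually in percent against untreated plants roughly 3 weeks after treatment (0% no effect, 100% plants dead). Compounds, as WP or EC with 0.5% additive in 600 l/ha water, were applied to the covering soil right after sowing; greenhouse growth. Suffixes a, b, c denote different dosages.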

[6] = tested on: Oryza sativa (ORYSA); conditions: pre-emergence, crop plant compatibility, in comparison to untreated controls
Method in brief: as §3

[7] = tested on: Zea mays (ZEAMX); conditions: pre-emergence, crop plant compatibility, in comparison to untreated controls
Method in brief: as §3

[8] = tested on: Setaria viridis (SETVI); experiment: Post-emergence herbicidal action against SETVI
Method in brief: as §2

[9] = tested on: Verconica persica (VERPE); experiment: Pre-emergence herbicidal action against VERPE; conditions: dosage 320 g/ha
Method in brief: (§4)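 Pre-emergence soil-surface spray, WP/EC formulation, 0.5% additive, 600 l/ha water, rates of 320 g/ha or lower. Greenhouse, ~3 wk. Visual score, % of untreated control (100% = plants dead, 0% = like control).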

[10] = tested on: Amaranthus retroflexus (AMARE); experiment: Post-emergence herbicidal action against AMARE
Method in brief: as §2

[11] = tested on: Amaranthus retroflexus (AMARE); experiment: Pre-emergence herbicidal action against AMARE; conditions: visual scoring after about 3 weeks vs untreated controls
Method in brief: as §4

[12] = tested on: Setaria viridis (SETVI); experiment: Pre-emergence herbicidal action against SETVI; conditions: dosage 320 g/ha
Method in brief: as §4

[13] = tested on: Matricaria inodora (MATIN); experiment: Pre-emergence herbicidal action against MATIN; conditions: dosage 320 g/ha
Method in brief: as §4

[14] = tested on: Echinochloa crus-galli (ECHCG); experiment: Post-emergence herbicidal action against ECHCG; conditions: dosage 320 g/ha
Method in brief: as §2

[15] = tested on: Pharbitis purpurea (PHBPU); experiment: Pre-emergence herbicidal action against PHBPU; conditions: dosage 320 g/ha
Method in brief: as §4

[16] = tested on: Lolium rigidum (LOLRI); experiment: Pre-emergence herbicidal action against LOLRI; conditions: dosage 320 g/ha
Method in brief: as §4

[17] = tested on: Verconica persica (VERPE); experiment: Post-emergence herbicidal action against VERPE
Method in brief: as §2

[18] = tested on: Lolium rigidum (LOLRI); experiment: Post-emergence herbicidal action against LOLRI; conditions: dosage 320 g/ha
Method in brief: as §2

[19] = tested on: Polygonum convolvulus (POLCO); experiment: Pre-emergence herbicidal action against POLCO
Method in brief: as §4

[20] = tested on: Alopecurus myosuroides (ALOMY); experiment: Post-emergence herbicidal action against ALOMY; conditions: 320 g/ha, visual rating about 3 weeks after treatment vs untreated controls (100% = plants have died, 0% = like control plants)
Method in brief: as §2

[21] = tested on: Viola tricolor (VIOTR); experiment: Pre-emergence herbicidal action against VIOTR; conditions: 320 g/ha, Viola tricolor
Method in brief: as §4

[22] = tested on: Viola tricolor (VIOTR); experiment: Post-emergence herbicidal action against VIOTR
Method in brief: as §2

[23] = tested on: Polygonum convolvulus (POLCO); experiment: Post-emergence herbicidal action against POLCO
Method in brief: as §2

[24] = tested on: Digitaria sanguinalis (DIGSA); experiment: Pre-emergence herbicidal action against DIGSA; conditions: dosage 320 g/ha
Method in brief: as §4

[25] = tested on: Matricaria inodora (MATIN); experiment: Post-emergence herbicidal action against MATIN; conditions: dosage 320 g/ha
Method in brief: as §2

[26] = tested on: Echinochloa crus-galli (ECHCG); experiment: Pre-emergence herbicidal action against ECHCG; conditions: dosage 320 g/ha
Method in brief: as §4

[27] = tested on: Avena fatua (AVEFA); experiment: Post-emergence herbicidal action against AVEFA; conditions: 320 g/ha, visual rating about 3 weeks after treatment
Method in brief: as §2

[28] = 320 g/ha, visual rating about 3 weeks after treatment

Compound | Post-emergence action against TRZAS in % ([1]; 80 g/ha) [%] | Post-emergence action against ORYSA in % ([2]; 80 g/ha) [%] | Post-emergence action against ORYSA in % ([2]; 320 g/ha) [%] | Post-emergence action against ZEAMX in % ([3]; 80 g/ha) [%] | Post-emergence action against ZEAMX in % ([3]; 320 g/ha) [%] | Post-emergence action against PHBPU in % ([4]; dosage 80 g/ha) [%] | Post-emergence action against PHBPU in % ([4]; dosage 320 g/ha) [%] | Pre-emergence action against TRZAS in % ([5]; 80 g/ha) [%] | Pre-emergence action against TRZAS in % ([5]; 320 g/ha) [%] | Pre-emergence action against ORYSA in % ([6]; 80 g/ha) [%] | Pre-emergence action against ORYSA in % ([6]; 320 g/ha) [%] | Pre-emergence action against ZEAMX in % ([7]; 80 g/ha) [%] | Post-emergence action against SETVI in % ([8]; dosage 320 g/ha) [%] | Pre-emergence action against VERPE in % [9] [%] | Post-emergence action against AMARE in % [10, 28] [%] | Pre-emergence action against AMARE in % ([11]; 320 g/ha) [%] | Pre-emergence action against SETVI in % [12] [%] | Pre-emergence action against LOLRI in % [16] [%] | Post-emergence action against VERPE in % ([17]; 320 g/ha, VERPE) [%] | Post-emergence action against VERPE in % ([17]; dosage 80 g/ha) [%] | further results
COC(=O)CNC(=O)COc1nn(-c2cccc(C)n2)c(-c2ccc(F)nc2)c1Br [Example I-357] | 10 | 0 | 10 | 0 | 10 | 80 | 80 | 10 | 10 | 20 | 20 | 20 | 80 |  |  |  |  |  |  |  | Post-emergence action against TRZAS in % ([1]; 320 g/ha): 10%
COC(=O)[C@H](C)NC(=O)COc1nn(-c2ccnc(F)c2)c(-c2ccc(F)nc2)c1Br [III-28] |  | 0 | 0 | 0 | 0 |  |  | 0 |  | 0 | 10 | 0 |  | 80 | 80 | 80 |  |  |  |  | Pre-emergence action against ZEAMX in % ([7]; 320 g/ha): 10%; Post-emergence action against AMARE in % ([10]; 80 g/ha, visual rating about 3 weeks after treatment vs untreated controls (100% = plants have died, 0% = like control plants)): 80%
O=C(O)COc1nn(-c2ccnc(F)c2)c(-c2ccc(F)nc2)c1Br [III-02] | 20 | 0 | 20 | 10 | 20 |  |  | 0 | 20 | 0 | 0 | 20 |  |  | 80 | 80 | 80 |  |  |  | 
COCCOC(=O)COc1nn(-c2cccc(C)n2)c(-c2ccc(F)nc2)c1Cl [Example I-279] | 10 | 10 |  |  |  | 80 | 80 | 20 |  | 0 |  |  | 80 | 80 |  |  | 90 | 80 | 90 | 80 | Pre-emergence action against MATIN in % [13]: 80%; Post-emergence action against ECHCG in % [14]: 80%; Pre-emergence action against PHBPU in % [15]: 100%; Post-emergence action against SETVI in % ([8]; dosage 80 g/ha): 80%; Post-emergence action against LOLRI in % [18]: 80%; Pre-emergence action against POLCO in % ([19]; dosage 320 g/ha): 80%
CCOC(=O)COc1nn(-c2ccncc2)c(-c2ccc(F)nc2)c1Br [III-08] | 0 | 0 | 0 |  |  |  |  | 0 | 0 | 0 | 0 |  |  |  | 80 | 80 |  |  |  |  | Post-emergence action against ALOMY in % [20]: 80%; Pre-emergence action against VIOTR in % [21]: 90%; Post-emergence action against VIOTR in % ([22]; 320 g/ha): 80%; Post-emergence action against POLCO in % ([23]; dosage 320 g/ha): 80%
CCOC(=O)COc1nn(-c2ccccn2)c(-c2ccc(Cl)nc2)c1Br [Example I-239] |  | 0 |  | 0 | 20 | 80 | 90 | 20 |  |  |  | 0 |  |  | 80 | 90 |  |  | 80 | 80 | Pre-emergence action against ZEAMX in % ([7]; 320 g/ha): 20%; Pre-emergence action against DIGSA in % [24]: 90%; Pre-emergence action against AMARE in % ([11]; 80 g/ha): 80%; Post-emergence action against MATIN in % [25]: 80%; Post-emergence action against VIOTR in % ([22]; 80 g/ha): 80%; Post-emergence action against VIOTR in % ([22]; 320 g/ha): 80%; Post-emergence action against POLCO in % ([23]; dosage 80 g/ha): 80%; Post-emergence action against POLCO in % ([23]; dosage 320 g/ha): 80%
CCOC(=O)COc1nn(-c2cccc(C)n2)c(-c2ccc(F)nc2)c1Cl [Example I-352] | 10 | 20 |  |  |  | 90 | 90 | 10 |  | 20 |  |  | 80 | 80 | 80 | 90 | 90 | 80 | 80 | 80 | Pre-emergence action against MATIN in % [13]: 90%; Pre-emergence action against ECHCG in % [26]: 90%; Post-emergence action against ECHCG in % [14]: 80%; Pre-emergence action against PHBPU in % [15]: 80%; Post-emergence action against AVEFA in % [27]: 80%; Post-emergence action against LOLRI in % [18]: 80%; Pre-emergence action against POLCO in % ([19]; dosage 80 g/ha): 80%; Pre-emergence action against POLCO in % ([19]; dosage 320 g/ha): 90%
O=C(O)COc1nn(-c2ccccn2)c(-c2ccc(Cl)nc2)c1Cl [Example I-236] |  | 0 | 0 | 0 |  |  | 80 | 20 |  |  |  | 20 |  |  | 80 | 80 |  | 90 | 80 |  | Pre-emergence action against DIGSA in % [24]: 90%; Post-emergence action against MATIN in % [25]: 80%; Post-emergence action against POLCO in % ([23]; dosage 320 g/ha): 80%
